Reference: PMC11816618, “Pharmacokinetic profile and in vivo anticancer efficacy of anagrelide administered subcutaneously in rodents” (Drug Delivery, 2025)
One block for each compound: values may come before it.

Key:
[1] = Long-term plasma exposure after a single SC ANA dose (56-day follow-up), plasma LC-MS/MS; type: in vivo, Sprague-Dawley rats; conditions: male SD rats, n = 5, 56-day follow-up
Description: To monitor the sustained release of SC ANA in the long term, 10 male SD rats were treated with a single dose of either 7.0 mg/kg (n = 5) or 35.0 mg/kg (n = 5). The rats were purchased from SPF Biotechnology Co. Ltd. (Beijing, China). Animals were acclimated to the test facility for at least three days, during which their general health was checked by veterinary staff or other authorized personnel. Animals were kept in polycarbonate cages containing absorbent corncob bedding, with a maintained temperature range of +20-25 °C and a 12-h light/dark cycle. Animals had access to food and drinking water ad libitum during acclimation and the experiment. At the end of the study, the rats were euthanized by exposure to an increasing concentration of CO2. […] The SC formulation was prepared by dissolving micronized ANA (5 μm particle size) in an oily triglyceride ester of saturated caprylic and capric fatty acids and glycerol (Miglyol® 810 N, IOI Oleo GmbH, Hamburg, Germany). […] To evaluate plasma concentration-time profiles, blood samples were collected from the jugular vein in EDTA tubes and stored at -70 °C until further analysis. […] In the second PK analysis in rats with a longer follow-up time, blood samples were collected at 0, 30 min, 1 […], and 56 d after dosage. SD rat plasma was analyzed for ANA, 3-OH-ANA, and RL603 concentrations by Pharmaron (Beijing, China). ANA, 3-hydroxy-anagrelide (CAS No. 733043-41-9, Cat. No. sc-206647, Santa Cruz Biotechnology, Inc., Dallas, TX), and RL603 (CAS No. 327602-34-6, Cat. No. sc-391661, Santa Cruz Biotechnology, Inc., Dallas, TX) were used as reference items in calibration standards and quality control (QC) samples. The HPLC and the MS/MS (LCMS-8060) instruments were both from SHIMADZU (Kyoto, Japan), and the column used was a Raptor Biphenyl column (2.7 μm, 50 × 2.1 mm, Restek, Bellefonte, PA). The desired serial concentrations of working solutions were achieved by diluting analyte stock solution with 50% acetonitrile in water. […] QC samples at 0.5, 1, 2, 50, and 800 ng/mL were prepared independently of those used for the calibration curves. These QC samples were prepared on the day of analysis in the same way as calibration standards. Carbamazepine (CAS No. 298-46-4, Sigma-Aldrich, St. Louis, MO) was used as an internal standard for all analytes. Altogether, 55 μL of standards, 55 μL of QC samples, and 55 μL of test samples (comprising 50 μL of plasma and 5 μL of blank solution) were added to 200 μL of acetonitrile containing an internal standard mixture to precipitate protein. The samples were then vortexed for 30 seconds. After centrifugation at 4000 × g (+4 °C) for 5 min, the supernatant was diluted threefold with water, and 2 μL of the diluted supernatant was injected into the LC/MS/MS system for quantitative analysis. The transitions were 256.00-198.90 m/z for anagrelide hydrochloride, 272.00-198.95 m/z for 3-hydroxy anagrelide, 216.00-198.95 m/z for RL603, and 237.20-194.10 m/z for carbamazepine. […] Plasma drug concentration-time profiles were drawn by the average plasma concentrations at specific time points using Microsoft Excel (Redmond, WA). […] Certara, Princeton, NJ) software. Averages of each variable were used when PK values were compared.

[2] = PK comparison between three administration routes (IV, PO, SC), plasma LC-MS/MS; type: in vivo, Sprague-Dawley rats; conditions: for Tmax: male, plasma, read-out: Tmax
Description: The rats were purchased from SPF Biotechnology Co. Ltd. (Beijing, China). Animals were acclimated to the test facility for at least three days, during which their general health was checked by veterinary staff or other authorized personnel. Animals were kept in polycarbonate cages containing absorbent corncob bedding, with a maintained temperature range of +20-25 °C and a 12-h light/dark cycle. Animals had access to food and drinking water ad libitum during acclimation and the experiment. At the end of the study, the rats were euthanized by exposure to an increasing concentration of CO2. […] The SC formulation was prepared by dissolving micronized ANA (5 μm particle size) in an oily triglyceride ester of saturated caprylic and capric fatty acids and glycerol (Miglyol® 810 N, IOI Oleo GmbH, Hamburg, Germany). […] To evaluate plasma concentration-time profiles, blood samples were collected from the jugular vein in EDTA tubes and stored at -70 °C until further analysis. […] In the second PK analysis in rats with a longer follow-up time, blood samples were collected at 0, 30 min, 1 […], and 56 d after dosage. SD rat plasma was analyzed for ANA, 3-OH-ANA, and RL603 concentrations by Pharmaron (Beijing, China). ANA, 3-hydroxy-anagrelide (CAS No. 733043-41-9, Cat. No. sc-206647, Santa Cruz Biotechnology, Inc., Dallas, TX), and RL603 (CAS No. 327602-34-6, Cat. No. sc-391661, Santa Cruz Biotechnology, Inc., Dallas, TX) were used as reference items in calibration standards and quality control (QC) samples. The HPLC and the MS/MS (LCMS-8060) instruments were both from SHIMADZU (Kyoto, Japan), and the column used was a Raptor Biphenyl column (2.7 μm, 50 × 2.1 mm, Restek, Bellefonte, PA). The desired serial concentrations of working solutions were achieved by diluting analyte stock solution with 50% acetonitrile in water. […] These QC samples were prepared on the day of analysis in the same way as calibration standards. Carbamazepine (CAS No. 298-46-4, Sigma-Aldrich, St. Louis, MO) was used as an internal standard for all analytes. Altogether, 55 μL of standards, 55 μL of QC samples, and 55 μL of test samples (comprising 50 μL of plasma and 5 μL of blank solution) were added to 200 μL of acetonitrile containing an internal standard mixture to precipitate protein. The samples were then vortexed for 30 seconds. After centrifugation at 4000 × g (+4 °C) for 5 min, the supernatant was diluted threefold with water, and 2 μL of the diluted supernatant was injected into the LC/MS/MS system for quantitative analysis. The transitions were 256.00-198.90 m/z for anagrelide hydrochloride, 272.00-198.95 m/z for 3-hydroxy anagrelide, 216.00-198.95 m/z for RL603, and 237.20-194.10 m/z for carbamazepine. […] Plasma drug concentration-time profiles were drawn by the average plasma concentrations at specific time points using Microsoft Excel (Redmond, WA). […] Certara, Princeton, NJ) software. Averages of each variable were used when PK values were compared.

[3] = analyte in plasma after single SC ANA dose 7 mg/kg
[4] = analyte in plasma after single SC ANA dose 35 mg/kg
[5] = Sprague-Dawley, rat, analyte in plasma after single ANA dose 0.5 mg/kg IV, male SD rats, n = 3, mean ± SD
[6] = Sprague-Dawley, rat, analyte in plasma after single ANA dose 2.5 mg/kg PO, male SD rats, n = 3, mean ± SD
[7] = Sprague-Dawley, rat, analyte in plasma after single SC ANA dose 7 mg/kg
[8] = Sprague-Dawley, rat, analyte in plasma after single SC ANA dose 35 mg/kg

- AUCinf [1, 3]: 699.77 ± 705.45 ng·h/mL
- AUClast [1, 3]: 86.57 ± 60.96 ng·h/mL
- Cmax [1, 3]: 0.46 ± 0.09 ng/mL
- T1/2 [1, 3]: 1099 ± 945.8 h
- Tmax [1, 3]: 19.00 ± 35.34 h
- AUCinf [1, 4]: 2492.52 ± 2459.44 ng·h/mL
- AUClast [1, 4]: 563.51 ± 106.90 ng·h/mL
- Cmax [1, 4]: 1.75 ± 0.61 ng/mL
- T1/2 [1, 4]: 377.8 ± 200 h
- Tmax [1, 4]: 46.00 ± 95.07 h
SMILES: O=C1NC2=Nc3ccc(Cl)c(Cl)c3CN2C1O (centres unmarked) [3-Hydroxy-anagrelide, 3′-hydroxy-anagrelide]

- Cmax [2, 5]: 12.3 ± 2.85 ng/mL
- half-life [2, 5]: 0.98 ± 0.24 h
- AUC(0-inf) [2, 6]: 34.8 ± 9.94 ng·h/mL
- AUC(0-t) [2, 6]: 24.9 ± 4.29 ng·h/mL
- Cmax [2, 6]: 3.48 ± 1.01 ng/mL
- half-life [2, 6]: 13.1 ± 5.29 h
- plasma concentration (not detected above the quantifiable limit) ([2]; after SC ANA 1.0 mg/kg, SD rats): < 0.2 ng/mL
- Tmax ([2]; Sprague-Dawley, rat, iv, 0.5 mg/kg, analyte in plasma after single ANA dose 0.5 mg/kg IV, male SD rats, n = 3, mean ± SD): 1 ± 0.87 h
- Tmax ([2]; Sprague-Dawley, rat, po, 2.5 mg/kg, analyte in plasma after single ANA dose 2.5 mg/kg PO, male SD rats, n = 3, mean ± SD): 1.67 ± 0.58 h
- AUC(0-inf) [1, 7]: 1530 ± 1540 ng·h/mL
- AUC(0-t) [1, 7]: 351 ± 85.7 ng·h/mL
- half-life [1, 7]: 895 h
- Cmax ([1]; Sprague-Dawley, rat, analyte in plasma after single SC ANA dose 7 mg/kg, read-out: Cmax): 1.08 ± 0.26 ng/mL
- Tmax ([1]; Sprague-Dawley, rat, analyte in plasma after single SC ANA dose 7 mg/kg, read-out: Tmax): 19.6 ± 9.84 h
- AUC(0-inf) [1, 8]: 2280 ± 1210 ng·h/mL
- AUC(0-t) [1, 8]: 925 ± 141 ng·h/mL
- half-life [1, 8]: 285 h
- Cmax ([1]; Sprague-Dawley, rat, analyte in plasma after single SC ANA dose 35 mg/kg, read-out: Cmax): 2.4 ± 1.28 ng/mL
- Tmax ([1]; Sprague-Dawley, rat, analyte in plasma after single SC ANA dose 35 mg/kg, read-out: Tmax): 92.8 ± 113 h
SMILES: NC1=Nc2ccc(Cl)c(Cl)c2CN1 [RL603, 2‐amino‐5,6‐dichloro‐3,4‐dihydroquinazolin]
